Source: US20250108036A1, “COMPOSITIONS FOR REMOVING SENESCENT CELLS AND USES THEREOF” (LIFECEUTIX CO., LTD., priority 2021, published 2025)
Read-outs that look alike come from different tables or passages of the source.

Legend:
Assay type in all cases: cell-based, human
HMGN1 [1] = assay: HMGN1 ELISA in culture medium of A549 cancer cells (Example 12, Table 66); conditions: Homo sapiens; for activity at 90 µM: test compound 90 μM
HMGN1 [2] = assay: HMGN1 ELISA in culture medium of foreskin cells (Examples 10, 11; Tables 62, 63, 64); conditions: Homo sapiens; for activity at 90 µM: 90 μM test compound; for activity at 30 µM: read-out: HMGN1
[3] = test system: foreskin cells in which senescence was induced by doxorubicin; assay: CellTiter-Glo cell viability of doxorubicin-induced senescent foreskin cells (Examples 1-2, 10, 11, 13; Tables 4, 63, 65); conditions: for viability at 1.1 µM / viability at 10 µM / viability at 30 µM / viability at 90 µM / viability at […]: Homo sapiens, 72 h, read-out: Survival (%); for viability at 90 µM: 90 μM test compound
Method: After 3 days, cell viability was measured using CellTiter-Glo Luminescent Cell Viability Assay (Promega) or light microscopy.

A549 = assay: CellTiter-Glo cell viability of senescent A549 cancer cells (Example 12, Table 67); conditions: for viability at 1.1 µM / viability at 10 µM / viability at 30 µM / viability at 90 µM: Homo sapiens; for Survival (%): doxorubicin-induced senescent A549 cancer cells
[4] = A549, doxorubicin-induced senescent A549 cells, ELISA, DMSO = 100, read-out: HMGN1 (amount of HMGN1 secreted in the cell culture)
[5] = doxorubicin-treated foreskin cells, DMSO = 100
[6] = 1.1 μM test compound, doxorubicin-induced senescent foreskin cells, CellTiter-Glo, 0 μM = 100
[7] = 10 μM test compound, doxorubicin-induced senescent foreskin cells, CellTiter-Glo, 0 μM = 100
[8] = 30 μM test compound, doxorubicin-induced senescent foreskin cells, CellTiter-Glo, 0 μM = 100
[9] = doxorubicin-induced senescent foreskin cells, CellTiter-Glo, 0 μM = 100
[10] = […] test compound, doxorubicin-induced senescent foreskin cells, CellTiter-Glo, 0 μM = 100
[11] = A549, doxorubicin-induced senescent A549 cancer cells, 1.1 μM test compound, CellTiter-Glo, read-out: Survival (%)
[12] = A549, doxorubicin-induced senescent A549 cancer cells, 10 μM test compound, CellTiter-Glo, read-out: Survival (%)
[13] = A549, doxorubicin-induced senescent A549 cancer cells, 30 μM test compound, CellTiter-Glo, read-out: Survival (%)
[14] = A549, doxorubicin-induced senescent A549 cancer cells, 90 μM test compound, CellTiter-Glo, read-out: Survival (%)
[15] = A549, doxorubicin-induced senescent A549 cells, test compound 30 μM, ELISA, DMSO = 100, read-out: HMGN1 (amount of HMGN1 secreted in the cell culture)
[16] = 30 μM test compound, doxorubicin-treated foreskin cells, DMSO = 100

Row | SMILES | activity at 90 µM (HMGN1 [1]; [4]) [%] | viability at 1.1 µM [3, 6] [%] | viability at 10 µM [3, 7] [%] | viability at 30 µM [3, 8] [%] | viability at […] [3, 10] [%] | viability at 1.1 µM (A549; [11]) [%] | viability at 10 µM (A549; [12]) [%] | viability at 30 µM (A549; [13]) [%] | viability at 90 µM (A549; [14]) [%] | activity at 30 µM (HMGN1 [2]; [16]) [%] | further results
1 | CN(C)c1nc(N(C)C)nc(N(C)C)n1 [LX-501, Altretamine, reference compound] | 233 | 103 | 98.9 | 85.2 | 105 | 99.8 | 103 | 99.5 | 13.1 |  | activity at 90 µM (HMGN1 [2]; [5]): 168%; viability at 90 µM [3, 9]: 53.7%
2 | CCCCS[C@@H]1O[C@@H]2O[C@@]3(C)CCC4[C@H](C)CCC([C@H]1C)[C@]42OO3 (some centres unmarked) [LX-503] |  | 25.1 |  |  |  | 34.4 |  |  |  | 284 | activity at 30 µM (HMGN1 [1]; [15]): 333%
3 | C[C@H]1[C@H](SCc2ccccc2)O[C@@H]2O[C@@]3(C)CC[C@H]4[C@H](C)CC[C@@H]1[C@@]24OO3 [LX-505] |  | 35.2 |  |  | 0.4 | 51.1 |  |  |  | 299 | activity at 30 µM (HMGN1 [1]; [15]): 317%
4 | C[C@@H]1CC[C@H]2[C@@H](C)C(=O)O[C@@H]3O[C@@]4(C)CC[C@@H]1[C@]32OO4 [LX-506, Artemisinin, reference compound] | 169 | 101 | 91 | 78 | 97.2 | 109 | 93.8 | 91.4 | 44.2 |  | activity at 90 µM (HMGN1 [2]; [5]): 169%; viability at 90 µM [3, 9]: 33.2%
5 | C=C1C(=O)O[C@H]2C1CC/C(COC(=O)/C=C/c1c(OC)cccc1OC)=C\CCC1(C)O[C@H]21 (some centres unmarked) [LX-601] |  | 6.1 |  |  | 3.3 | 13.8 |  |  |  | 293 | activity at 30 µM (HMGN1 [1]; [15]): 318%
6 | O=S(=O)(NC1CCCCC1)c1ccc2c(c1)C(=NO)c1cc(S(=O)(=O)NC3CCCCC3)ccc1-2 [LX-602] |  | 79 | 25.9 | 16.1 | 55.2 | 102 | 99 | 41.8 | 2.7 | 248 | activity at 30 µM (HMGN1 [1]; [15]): 248%
7 | CC1(CCO)CC2(CCC(C(C)(C)C)CC2)OO1 (centres unmarked) [LX-603] |  | 91.7 | 51.6 | 16.8 | 74.1 | 94.1 | 53.6 | 17.5 |  | 263 | activity at 30 µM (HMGN1 [1]; [15]): 332%
8 | C=C1C(=O)C2CCN1CC2 [LX-702, 2-Methylene-3-quinuclidinone] |  |  |  |  |  |  |  |  |  |  | activity at 30 µM (HMGN1 [1]; A549, read-out: HMGN1 (amount of HMGN1 secreted in the cell culture)): 305%; activity at 30 µM (HMGN1 [2]): 278%; viability at 1.1 µM [3]: 82.1%; viability at 10 µM [3]: 6.5%; viability at 1.1 µM (A549; A549, read-out: Survival (%)): 87.3%; viability at 10 µM (A549; A549, read-out: Survival (%)): 33.4%; viability at 30 µM (A549; A549, read-out: Survival (%)): 3%
9 | CN(C)C(=S)N/N=C1\CCCc2cccnc21 [LX-802, 2-(6,7-Dihydroquinolin-8(5H)-ylidene)-N^4,N^4-dimethylhydrazine-1-carbothioamide] |  | 42.7 |  |  | 5.7 | 62.7 |  |  |  | 301 | activity at 30 µM (HMGN1 [1]; [15]): 329%
10 | CCn1c2ccccc2c2cc(CNC)ccc21 [LX-901] | 255 | 99.5 | 67.5 | 15.8 | 98.4 | 97.8 | 82.7 | 34.8 | 11.7 | 257 | 
11 | CCn1c2ccccc2c2cc(NC(=O)COC(=O)C3CCC(=O)N3)ccc21 (centres unmarked) [LX-902] | 234 | 97.9 | 72.8 | 23.9 | 91.6 | 94.6 | 88.2 | 62.7 | 25.8 | 268 | 
12 | CCn1c2ccc(CNC)cc2c2ccc(-c3cnoc3)cc21 [LX-903] | 239 | 104 | 73.2 | 5.7 | 89.8 | 98.9 | 81.6 | 42.7 | 12.3 | 324 | 
13 | CCn1c(C#CCNc2ccccc2)cc2cc(CNC)ccc21 [LX-905] | 217 | 97.6 | 42.5 | 6.9 | 91.6 | 101 | 83.1 | 79.5 | 22.7 | 318 | 
14 | Cn1cc(-c2ccccc2)c(-n2cccc2)n1 [LX-907] | 264 | 98.8 | 62.8 | 9.7 | 95.1 | 90.1 | 78.5 | 53.7 | 5.9 | 297 | 
15 | CN(C)CCn1cc(-c2ccc(F)cc2)c(-n2cccc2)n1 [LX-909] | 240 |  |  |  |  |  |  |  |  | 267 | Survival (%) [3, 6]: 100.5%; Survival (%) [3, 7]: 75.1%; Survival (%) [3, 8]: 2.8%; Survival (%) [3, 10]: 85.5%; Survival (%) (A549; 1.1 μM test compound, CellTiter-Glo): 96.7%; Survival (%) (A549; 10 μM test compound, CellTiter-Glo): 85.6%; Survival (%) (A549; 30 μM test compound, CellTiter-Glo): 77.2%; Survival (%) (A549; 90 μM test compound, CellTiter-Glo): 17.5%
16 | CCN(CC)C1CCN(Cc2cc(C#CCNc3ccccc3)cc(I)c2O)CC1 [LX-910] | 238 | 95.6 | 68.4 | 1.1 | 84.7 | 95.8 | 76.9 | 47.5 | 2.7 | 278 | 
17 | CCN(CC)c1nc2c(C(=O)O)c(O)c(I)c(-n3cccc3)c2s1 [LX-911] | 206 | 94.3 | 43.5 | 7.5 | 91.6 | 98.4 | 82.9 | 78.6 | 27.4 | 294 | 
18 | CCNC(=O)c1c(O)c(I)c(-n2cccc2)c2sc(N(CC)CC)nc12 [LX-912] | 244 | 104 | 32.7 | 3.1 | 85.2 | 92.4 | 83.9 | 32.4 | 6.7 | 317 | 
19 | COC(=O)/C=C\C(C#N)(C#N)/N=C/c1ccc(C)cc1 [LX-920] | 197 | 100 | 86.2 | 23.8 | 95.4 | 98.4 | 95.3 | 93.9 | 25.1 | 278 | 
20 | C=C(CN(C)C)C(=O)c1cc(C)ccc1C [LX-921] | 175 | 99.6 | 89.1 | 15.7 | 89.2 | 99.5 | 91.2 | 90.9 | 39.7 | 311 | 
21 | C=C(CN(C)C)C(=O)c1ccc(C)cc1C [LX-923] | 219 | 97.7 | 75.7 | 19.5 | 94.5 | 96.7 | 89.4 | 81.7 | 15.7 | 271 | 
22 | CC(C)Oc1ccc(-c2ccccc2)cc1-n1c(CN2CCN(C(=O)COc3ccc(Cl)cc3)CC2)nc2ccccc2c1=O [LX-1001] | 183 | 89.9 | 57.7 | 34.5 | 81.8 | 95.5 | 92.2 | 71.8 | 25.3 | 231 | 
